Here are results for one compound from ChEMBL document CHEMBL4041543, “Light induced drug release from a folic acid-drug conjugate” (Bioorg Med Chem Lett, 2017).

This experiment is described as follows: Drug level treated with Photo Dox-Fol conjugate assessed as photolysis-mediated compound release in presence of 1.1 J/cm2 UV light irradiation by RP-HPLC method.

Structures are written as SMILES.

Turning to `COc1cccc2c1C(=O)c1c(O)c3c(c(O)c1C2=O)C[C@@](O)(C(=O)CO)C[C@@H]3O[C@H]1C[C@H](N)[C@H](O)[C@H](C)O1`, the Drug metabolism entry is “Metabolite detected”.
